Format in all cases: in vivo
One assay relates to Botrytis cinerea. Nature of the assay: Test A: preventive spray on tomato seedlings, tomato Botrytis, visual disease rating. The following applies: for pest or weed control at 200 ppm / Test A rating (disease control): 200 ppm test suspension, Botrytis cinerea inoculated the day after spraying. The method in brief: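 Tomato seedlings were sprayed to run-off with test suspension, 200 ppm (≈800 g/ha) unless marked 40 ppm, in acetone/water with surfactant. They were inoculated with Botrytis cinerea spores next day, held 48 h saturated at 20 °C, then 3 days at 24 °C. Disease control was rated visually, 0–100 relative to controls, in triplicate.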

The next assay deals with Alternaria solani. Nature of the assay: Test B: preventive spray on tomato seedlings, tomato early blight, visual disease rating. On the procedure:
General protocol for preparing test suspensions for Tests A-G: the test compounds were first dissolved in acetone in an amount equal to 3% of the final volume and then suspended at the desired concentration (in ppm) in acetone and purified water (50/50 mix by volume) containing 250 ppm of the surfactant Trem® 014 (polyhydric alcohol esters). The resulting test suspensions were then used in Tests A-G. Each test was conducted in triplicate, and the results were averaged. Spraying a 200 ppm test suspension to the point of run-off on the test plants was the equivalent of a rate of 800 g/ha. Unless otherwise indicated, the rating values indicate a 200 ppm test suspension was used. (An asterisk “*” next to the rating value indicates a 40 ppm test suspension was used.) The test suspension was sprayed to the point of run-off on tomato seedlings. The following day the seedlings were inoculated with a spore suspension of Alternaria solani (the causal agent of tomato early blight) and incubated in a saturated atmosphere at 27° C. for 48 h, and then moved to a growth chamber at 20° C. for 5 days, after which time visual disease ratings were made. Results for Tests A-G are given in Table A. In the Table, a rating of 100 indicates 100% disease control and a rating of 0 indicates no disease control (relative to the controls). A hyphen (-) indicates no test results.

In the next assay the test system is Septoria tritici. Nature of the assay: Test D: preventive spray on wheat seedlings, wheat leaf blotch, visual disease rating. The conditions noted are these: for pest or weed control at 200 ppm / Test D rating (disease control): 200 ppm test suspension, Septoria tritici inoculated the day after spraying. The method in brief:
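Wheat seedlings sprayed to run-off with 200 ppm suspension (≈800 g/ha; asterisked ratings 40 ppm), then inoculated with S. tritici spores next day. Held 48 h saturated at 24 °C, then 19 days at 20 °C. Visual rating 0–100% disease control versus controls, triplicate mean.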

The subject of assay [1] is Puccinia recondita f. sp. tritici. Put plainly: Test E: spray after inoculation of wheat seedlings, wheat leaf rust, visual disease rating. The conditions noted are these: sprayed after inoculation with Puccinia recondita f. sp. tritici. On the procedure: General protocol for preparing test suspensions for Tests A-G: the test compounds were first dissolved in acetone in an amount equal to 3% of the final volume and then suspended at the desired concentration (in ppm) in acetone and purified water (50/50 mix by volume) containing 250 ppm of the surfactant Trem® 014 (polyhydric alcohol esters). The resulting test suspensions were then used in Tests A-G. Each test was conducted in triplicate, and the results were averaged. Spraying a 200 ppm test suspension to the point of run-off on the test plants was the equivalent of a rate of 800 g/ha. Unless otherwise indicated, the rating values indicate a 200 ppm test suspension was used. (An asterisk “*” next to the rating value indicates a 40 ppm test suspension was used.) Wheat seedlings were inoculated with a spore suspension of Puccinia recondita f. sp. tritici (the causal agent of wheat leaf rust) and incubated in a saturated atmosphere at 20° C. for 24 h, and then moved to a growth chamber at 20° C. for 2 days. At the end of this time the, the test suspension was sprayed to the point of run-off on the wheat seedlings, and then the seedlings were moved back to the growth chamber at 20° C. for 4 days. Upon removal, visual disease ratings were made. Results for Tests A-G are given in Table A. In the Table, a rating of 100 indicates 100% disease control and a rating of 0 indicates no disease control (relative to the controls). A hyphen (-) indicates no test results.

The test system is the same in assay [2]. Put plainly: Test F: preventive spray on wheat seedlings, wheat leaf rust, visual disease rating. The conditions noted are these: for pest or weed control at 200 ppm / Test F rating (disease control): 200 ppm test suspension, Puccinia recondita f. sp. tritici inoculated the day after spraying. A digest of the protocol:
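Compounds in acetone/water (50/50) with 250 ppm Trem 014, sprayed to run-off on seedlings at 200 ppm (800 g/ha) or 40 ppm where marked. Inoculated next day, 24 h saturated atmosphere at 20° C then 6 days at 20° C; visual rating, 100 = full control vs controls, triplicate averaged.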

The mark [3] stands for this setting: 200 ppm test suspension, Alternaria solani inoculated the day after spraying.

The source of these data is patent US20140288074A1, “FUNGICIDAL PYRAZOLES” (E I DU PONT DE NEMOURS AND COMPANY, priority 2013, published 2014).

Marks after values point to notes of the source that are not given here.

`Cc1nn(C)c(C(O)C(C)C)c1-c1ccc(F)cc1Cl` (stereo not drawn) [Compound 2, 4-(2-chloro-4-fluorophenyl)-1,3-dimethyl-α-(1-methylethyl)-1H-pyrazole-5-methanol]: the pest or weed control at 200 ppm with Botrytis cinerea (120 h) is 100%; in the assay with Septoria tritici (Zymoseptoria tritici, 504 h), 100%; in assay [2] (168 h), 99%. The “Test B rating (disease control)” value in the assay on Alternaria solani (setting [3]) is reported as 0%. Also, in assay [1] (200 ppm test suspension), the “Test E rating (disease control)” value worked out at 26%.

With `CCCNc1c(-c2ccc(Cl)cc2Cl)c(C)nn1C` [Compound 3], the “Test A rating (disease control)” value with Botrytis cinerea stood at 65%. The “Test B rating (disease control)” value with Alternaria solani (setting [3]) is 21%. The “Test D rating (disease control)” value in the assay with Septoria tritici is 92%. Further, the “Test E rating (disease control)” value in assay [1] (200 ppm test suspension) is given as 0%. For the same compound, the “Test F rating (disease control)” value in assay [2] is 0%.

Regarding `Cc1nn(C)c(NCC(C)C)c1-c1ccc(Cl)cc1Cl` [Compound 4, 4-(2,4-dichlorophenyl)-1,3-dimethyl-N-(2-methylpropyl)-1H-pyrazol-5-amine], the pest or weed control at 200 ppm in the assay with Botrytis cinerea (120 h) worked out at 99%; in the assay with Septoria tritici (Zymoseptoria tritici, 504 h) it was 99%; in assay [2] (168 h), 0%. In the assay on Alternaria solani (setting [3]), the “Test B rating (disease control)” value is on record as 94%. In assay [1] (200 ppm test suspension), the “Test E rating (disease control)” value came to 26%.

For the compound `CCCCNc1c(-c2ccc(Cl)cc2Cl)c(C)nn1C` [Compound 5, N-butyl-4-(2,4-dichlorophenyl)-1,3-dimethyl-1H-pyrazol-5-amine], the pest or weed control at 200 ppm in the assay on Botrytis cinerea (120 h) came out at 98%; with Septoria tritici (Zymoseptoria tritici, 504 h), 88%; in assay [2] (168 h) it was 27%. Also, the “Test B rating (disease control)” value in the assay with Alternaria solani (setting [3]) is 0%. Moreover, the “Test E rating (disease control)” value in assay [1] (200 ppm test suspension) turned out to be 79%.

`Cc1nn(C)c(NC2CCCCC2)c1-c1ccc(F)cc1F` [Compound 6, N-cyclohexyl-4-(2,4-difluorophenyl)-1,3-dimethyl-1H-pyrazol-5-amine]: the pest or weed control at 200 ppm is 99% in the assay with Botrytis cinerea (120 h); 100% in the assay on Septoria tritici (Zymoseptoria tritici, 504 h); 17% in assay [2] (168 h). Besides, the “Test B rating (disease control)” value in the assay with Alternaria solani (setting [3]) was 99%. Besides, the “Test E rating (disease control)” value in assay [1] (200 ppm test suspension) amounted to 68%.

In the case of `CCC(C)C(O)c1c(-c2ccc(F)cc2Cl)c(C)nn1C` (stereo not drawn) [Compound 8, 4-(2-chloro-4-fluorophenyl)-1,3-dimethyl-α-(1-methylpropyl)-1H-pyrazole-5-methanol], the pest or weed control at 200 ppm with Botrytis cinerea (120 h) stood at 95%; in the assay with Septoria tritici (Zymoseptoria tritici, 504 h), 100%; in assay [2] (168 h) it was 100%. For the same compound, the “Test B rating (disease control)” value with Alternaria solani (setting [3]) worked out at 99%. Besides, the “Test E rating (disease control)” value in assay [1] (200 ppm test suspension) is recorded as 0%.

`Cc1nn(C)c(C(O)C(C)(C)CCC#N)c1-c1c(F)cccc1F` (centres unmarked) [Compound 9]: in the assay on Botrytis cinerea, the “Test A rating (disease control)” value amounted to 26%. In addition, the “Test B rating (disease control)” value with Alternaria solani (setting [3]) was 0%. In addition, in the assay with Septoria tritici, the “Test D rating (disease control)” value is given as 98%. In assay [1] (200 ppm test suspension), the “Test E rating (disease control)” value stood at 0%. The “Test F rating (disease control)” value in assay [2] was 9%.

Take `Cc1nn(C)c(C(O)C2=CCCCC2)c1-c1c(F)cccc1F` (centres unmarked) [Compound 10]: the “Test A rating (disease control)” value in the assay with Botrytis cinerea turned out to be 99%. The “Test B rating (disease control)” value in the assay on Alternaria solani (setting [3]) is listed as 99%. Further, the “Test D rating (disease control)” value in the assay with Septoria tritici was 92%. Further, the “Test E rating (disease control)” value in assay [1] (200 ppm test suspension) worked out at 0%. In addition, the “Test F rating (disease control)” value in assay [2] amounted to 86%.

Take `Cc1nn(C)c(C(O)CC(C)C)c1-c1c(F)cccc1F` (centres unmarked) [Compound 11]: in the assay on Botrytis cinerea, the “Test A rating (disease control)” value is recorded as 67%. The “Test B rating (disease control)” value with Alternaria solani (setting [3]) is 81%. For the same compound, the “Test D rating (disease control)” value with Septoria tritici amounted to 98%. For the same compound, the “Test E rating (disease control)” value in assay [1] (200 ppm test suspension) stood at 0%. For the same compound, the “Test F rating (disease control)” value in assay [2] was determined as 89%.

For the compound `C=CCC(C)(C)C(O)c1c(-c2c(F)cccc2F)c(C)nn1C` (centres unmarked) [Compound 12], in the assay with Botrytis cinerea, the “Test A rating (disease control)” value came out at 0%. Moreover, the “Test B rating (disease control)” value in the assay on Alternaria solani (setting [3]) worked out at 32%. In addition, the “Test D rating (disease control)” value with Septoria tritici is reported as 83%. For the same compound, the “Test E rating (disease control)” value in assay [1] (200 ppm test suspension) was 0%. In assay [2], the “Test F rating (disease control)” value is on record as 41%.

Regarding `CCCCC(CC)C(O)c1c(-c2c(F)cccc2F)c(C)nn1C` (centres unmarked) [Compound 13], the “Test A rating (disease control)” value in the assay on Botrytis cinerea turned out to be 0%. In addition, the “Test B rating (disease control)” value in the assay on Alternaria solani (setting [3]) was 0%. In the assay with Septoria tritici, the “Test D rating (disease control)” value worked out at 55%. Besides, the “Test E rating (disease control)” value in assay [1] (200 ppm test suspension) is reported as 0%. Further, the “Test F rating (disease control)” value in assay [2] came to 28%.

As to `CCCC(O)c1c(-c2c(F)cccc2F)c(C)nn1C` (centres unmarked) [Compound 14], in the assay with Botrytis cinerea, the “Test A rating (disease control)” value turned out to be 33%. Also, the “Test B rating (disease control)” value in the assay with Alternaria solani (setting [3]) stood at 0%. For the same compound, the “Test D rating (disease control)” value in the assay on Septoria tritici is given as 62%. Besides, the “Test E rating (disease control)” value in assay [1] (200 ppm test suspension) came to 0%. The “Test F rating (disease control)” value in assay [2] turned out to be 74%.

As to `CCC(C)C(O)c1c(-c2c(F)cccc2F)c(C)nn1C` (centres unmarked) [Compound 15], in the assay with Botrytis cinerea, the “Test A rating (disease control)” value amounted to 67%. In addition, the “Test B rating (disease control)” value with Alternaria solani (setting [3]) is reported as 99%. Also, the “Test D rating (disease control)” value with Septoria tritici is given as 100%. Further, the “Test E rating (disease control)” value in assay [1] (200 ppm test suspension) was 9%. In assay [2], the “Test F rating (disease control)” value was 74%.

For the compound `CCC(C)C(O)c1c(-c2c(F)cccc2Cl)c(C)nn1C` (stereo not drawn) [Compound 19, 4-(2-chloro-6-fluorophenyl)-1,3-dimethyl-α-(1-methylpropyl)-1H-pyrazole-5-methanol], the pest or weed control at 40 ppm in the assay with Botrytis cinerea (120 h, 40 ppm test suspension (asterisk), Botrytis cinerea) came out at 77%; in the assay with Septoria tritici (Zymoseptoria tritici, 504 h, 40 ppm test suspension (asterisk), Septoria tritici), 89%; in assay [2] (168 h, 40 ppm test suspension (asterisk), Puccinia recondita f. sp. tritici, preventive), 19%. Further, in the assay on Alternaria solani (40 ppm test suspension (asterisk), Alternaria solani), the “Test B rating (disease control)” value is recorded as 0* %. The “Test E rating (disease control)” value in assay [1] (40 ppm test suspension (asterisk)) is recorded as 0* %.

Consider `Cc1nn(C)c(C(O)CC(C)C)c1-c1c(F)cccc1Cl` (centres unmarked) [Compound 20], for which the “Test A rating (disease control)” value in the assay with Botrytis cinerea was found to be 92%. Moreover, in the assay with Alternaria solani (setting [3]), the “Test B rating (disease control)” value was found to be 93%. In addition, the “Test D rating (disease control)” value in the assay with Septoria tritici was 100%. Further, in assay [1] (200 ppm test suspension), the “Test E rating (disease control)” value amounted to 0%. Besides, the “Test F rating (disease control)” value in assay [2] is on record as 86%.

`CCCC(O)c1c(-c2c(F)cccc2Cl)c(C)nn1C` (centres unmarked) [Compound 21]: the “Test A rating (disease control)” value in the assay with Botrytis cinerea amounted to 75%. In addition, in the assay with Alternaria solani (setting [3]), the “Test B rating (disease control)” value was 56%. The “Test D rating (disease control)” value in the assay on Septoria tritici turned out to be 97%. In addition, the “Test E rating (disease control)” value in assay [1] (200 ppm test suspension) is 0%. Besides, the “Test F rating (disease control)” value in assay [2] was 74%.

A word on the pest or weed control: it is the degree to which the test organism was suppressed or injured, in per cent. Low values mean a weak effect, high ones a strong effect.
